Paper PMC9983021, “Novel GluN2B-Selective NMDA Receptor Negative Allosteric Modulator Possesses Intrinsic Analgesic Properties and Enhances Analgesia of Morphine in a Rodent Tail Flick Pain Model” (ACS Chemical Neuroscience, 2023)

Experiments:
C57BL/6J mice [1] = test: Morphine analgesic tolerance development, chronic co-administration (tail immersion test); type: in vivo; settings: male (10 mg/kg) and female (20 mg/kg) mice; co-administered with morphine three times a day for three days
Protocol: Morphine tolerance was induced using repeated administration of increasing doses of morphine from 25 to 40 mg/kg three times a day at 3 to 4 h intervals over three consecutive days (Figure 9). This procedure was adapted from previous publications.[87]−[89]
Figure 9 Morphine analgesic tolerance “stair stepping” dosing regimen. TIT = tail immersion test. On day 1, TIT was conducted to determine baseline latencies for all mice. On days 1 through 3, each mouse was administered morphine s.c. three times per day at doses increasing from 25 to 40 mg/kg at 8:00 am, 12:00 pm, and 4:00 pm. Doses of morphine are shown above the arrows, in mg/kg. […]
Mouse weights were recorded on the day of each experiment. […] Three recordings were taken for each mouse, and each data point is expressed as the mean of the three recordings. […] The identities were not decoded until the data were analyzed.
Prism 9.3.1 software (GraphPad, San Diego, CA) was used for all data analysis and visualization. Data for intrinsic antinociception was analyzed using one-way ANOVA and Dunnett’s post hoc test for multiple comparisons where each group was compared to vehicle. Data for acute morphine potentiation experiments were analyzed using one-way ANOVA and Tukey’s post hoc test for multiple comparisons was also used, where each group mean was compared to the mean of every other group. […]

C57BL/6J mice [2] = test: Hot water tail immersion test, compound alone (intrinsic antinociception); type: in vivo; settings: for effect on tail flick latency vs vehicle: n = 8 per group
From the text: After evaluating EU93-108 in vitro, we next evaluated a panel of GluN2B inhibitors for their ability to produce an antinociceptive effect using a classical model of pain perception, determination of tail flick latency for mice when their tails are placed in hot water (Figures 4 and 5). The hot water tail immersion test is a well-validated method of assessing reflexive (i.e., spinal) pain-like response in rodents.[80]−[83] We interpret a drug-induced increase in tail flick latency as analgesia.
The inhibitors were injected i.p. 30 min prior to a hot water tail immersion test. Four treatment groups and one control group were used (n = 8 per group) where the control group received vehicle (10% DMSO, 20% PEG, 2% DMA in water) and groups 1 through 4 were randomly assigned one dose of the appropriate compound.
All animal studies performed at Emory have been approved by the Institutional Animal Care and Use Committee at Emory University. Male and female C57BL/6J mice weighing between 20 and 30 g were housed five per cage and given ad libitum access to food and water. The mice were 8–10 weeks of age at the time of experimentation. Animal holding rooms operated on a 12 h dark/light cycle with the dark cycle from 7:00 pm to 7:00 am. Mice were allowed to acclimate in cages for one week after arrival. The mice were handled regularly and habituated to scruffing and cloth restraint for 3–5 days prior to experimentation.
Mouse weights were recorded on the day of each experiment. Mice were given the appropriate treatment(s) 30 min prior to testing. All injection volumes were 10 mL/kg (e.g., 350 μL for a 35 g mouse). For the tail immersion experiments, each mouse was restrained with a Wypall cloth, leaving the tail exposed. The distal two-thirds of the tail was lowered into a sous vide water bath set to 48 °C, and a stopwatch with a resolution of 0.01 s was used to record the time elapsed between immersion and tail flick. Three recordings were taken for each mouse, and each data point is expressed as the mean of the three recordings. A cut-off time of 25 s was implemented to prevent tissue damage or scarring. For each experiment, the identities of the doses were coded by an independent researcher to ensure blinding. The identities were not decoded until the data were analyzed.
Prism 9.3.1 software (GraphPad, San Diego, CA) was used for all data analysis and visualization. Data for intrinsic antinociception was analyzed using one-way ANOVA and Dunnett’s post hoc test for multiple comparisons where each group was compared to vehicle. Data for acute morphine potentiation experiments were analyzed using one-way ANOVA and Tukey’s post hoc test for multiple comparisons was also used, where each group mean was compared to the mean of every other group. Data for tolerance experiments were analyzed using repeated measures two-way ANOVA and Bonferroni post hoc analysis. Data are presented as mean ± SEM and p < 0.05 constitutes significance.

GluA1 = target: T1, GluA1 (Homo sapiens, UniProt P42261); test: Off-target ligand-gated ion channels in Xenopus oocytes; type: cell-based; settings: agonist 100 µM glutamate; mean ± SEM
T1 construct: expressed in transfected cells; host or cells: Xenopus oocytes
Protocol: (§1) EU93-108 was further examined for its behavior against common off-target receptors. First, selectivity for GluN2B over other ion channels in the brain was examined via two-electrode voltage clamp recordings of Xenopus oocytes expressing AMPA, kainate, nicotinic acetylcholine, serotonin, GABA, glycine, and ATP receptors. Current responses were tested with saturating concentrations of agonist in both the absence and presence of 10 μM EU93-108, and confirmed selectivity for GluN2B-containing NMDA receptors over AMPA, kainate, GABA, glycine, ATP, and 5-HT3A receptors (Supporting Table S3).
(§2) Receptor Agonist % Control
(§3) Supplemental Table S3. Off-target actions of EU93-108 at ligand-gated ion channels expressed in Xenopus oocytes. The mean ± standard error of the mean for agonist plus 10 μM EU93-108 as a percentage of agonist in vehicle are given for each compound and receptor tested. Number of oocytes tested is given in parentheses.

GluK2 = target: T2, GluK2 (Homo sapiens, UniProt Q13002); test: as above; type: cell-based; settings: agonist 100 µM glutamate; mean ± SEM
T2 construct: expressed in transfected cells; host or cells: Xenopus oocytes
Protocol: as §1, §2, §3

α4β2-nACh = target: T3, α4β2-nACh (Homo sapiens, UniProt P17787+P43681); test: as above; type: cell-based; settings: agonist 10 µM acetylcholine; mean ± SEM
T3 construct: expressed in transfected cells; host or cells: Xenopus oocytes
Protocol: as §1, §2, §3

hGluA3-L531Y = target: T4, hGluA3-L531Y (Homo sapiens, UniProt P42263, L513Y); test: as above; type: cell-based; settings: agonist 100 µM glutamate; mean ± SEM
T4 construct: expressed in transfected cells; host or cells: Xenopus oocytes
Protocol: as §1, §2, §3

hGluN1/GluN3A = target: T5, hGluN1/GluN3A (Homo sapiens, UniProt Q05586+Q8TCU5); test: as above; type: cell-based; settings: agonist 100 µM glycine; mean ± SEM
T5 construct: expressed in transfected cells; host or cells: Xenopus oocytes
Protocol: as §1, §2, §3

ρ-GABAC = test: as above; type: cell-based; settings: agonist 100 µM GABA; mean ± SEM
Protocol: as §1, §2, §3

5-HT3A = target: T6, 5-HT3A (Homo sapiens, UniProt P46098); test: as above; type: cell-based; settings: agonist 100 µM serotonin; mean ± SEM
T6 construct: expressed in transfected cells; host or cells: Xenopus oocytes
Protocol: as §1, §2, §3

GluA2-R607Q = target: T7, GluA2-R607Q (Homo sapiens, UniProt P42262); test: as above; type: cell-based; settings: agonist 100 µM glutamate; mean ± SEM
T7 construct: expressed in transfected cells; host or cells: Xenopus oocytes
Protocol: as §1, §2, §3

rGluN1/GluN3B = target: T8, rGluN1/GluN3B (Rattus norvegicus, UniProt P35439+Q8VHN2); test: as above; type: cell-based; settings: agonist 100 µM glycine; mean ± SEM
T8 construct: expressed in transfected cells; host or cells: Xenopus oocytes
Protocol: as §1, §2, §3

α1-Glycine = target: T9, α1-Glycine (Homo sapiens, UniProt P23415); test: as above; type: cell-based; settings: agonist 100 µM glycine; mean ± SEM
T9 construct: expressed in transfected cells; host or cells: Xenopus oocytes
Protocol: as §1, §2, §3

[3] = male mice, i.p. 30 min prior to test

T8 sequence (Q8VHN2 25-1002, other chains not shown): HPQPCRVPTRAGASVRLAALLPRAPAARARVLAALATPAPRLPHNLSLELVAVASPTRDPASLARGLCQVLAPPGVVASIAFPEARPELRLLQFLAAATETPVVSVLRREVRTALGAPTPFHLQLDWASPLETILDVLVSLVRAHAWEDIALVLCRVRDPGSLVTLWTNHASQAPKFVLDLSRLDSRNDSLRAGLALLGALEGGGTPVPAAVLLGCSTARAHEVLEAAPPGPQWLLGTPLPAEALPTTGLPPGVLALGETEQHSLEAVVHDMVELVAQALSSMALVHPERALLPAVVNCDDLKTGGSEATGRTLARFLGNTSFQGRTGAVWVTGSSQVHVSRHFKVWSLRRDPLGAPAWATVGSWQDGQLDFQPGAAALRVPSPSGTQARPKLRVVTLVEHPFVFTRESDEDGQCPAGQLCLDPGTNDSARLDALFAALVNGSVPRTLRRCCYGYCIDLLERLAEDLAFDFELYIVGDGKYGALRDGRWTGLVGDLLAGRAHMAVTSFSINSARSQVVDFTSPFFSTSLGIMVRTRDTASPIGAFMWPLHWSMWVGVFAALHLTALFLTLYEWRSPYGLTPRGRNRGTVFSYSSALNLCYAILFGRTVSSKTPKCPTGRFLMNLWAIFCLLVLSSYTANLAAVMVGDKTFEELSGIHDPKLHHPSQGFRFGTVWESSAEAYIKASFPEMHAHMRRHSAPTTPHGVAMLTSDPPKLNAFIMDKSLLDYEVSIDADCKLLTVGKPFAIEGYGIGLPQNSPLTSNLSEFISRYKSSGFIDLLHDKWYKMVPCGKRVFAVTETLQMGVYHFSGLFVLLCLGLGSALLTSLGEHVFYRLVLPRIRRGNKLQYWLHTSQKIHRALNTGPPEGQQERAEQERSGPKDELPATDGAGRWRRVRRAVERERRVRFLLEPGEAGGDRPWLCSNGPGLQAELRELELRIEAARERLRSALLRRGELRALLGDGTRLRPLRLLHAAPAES
T5 sequence (Q8TCU5 24-1115, other chains not shown): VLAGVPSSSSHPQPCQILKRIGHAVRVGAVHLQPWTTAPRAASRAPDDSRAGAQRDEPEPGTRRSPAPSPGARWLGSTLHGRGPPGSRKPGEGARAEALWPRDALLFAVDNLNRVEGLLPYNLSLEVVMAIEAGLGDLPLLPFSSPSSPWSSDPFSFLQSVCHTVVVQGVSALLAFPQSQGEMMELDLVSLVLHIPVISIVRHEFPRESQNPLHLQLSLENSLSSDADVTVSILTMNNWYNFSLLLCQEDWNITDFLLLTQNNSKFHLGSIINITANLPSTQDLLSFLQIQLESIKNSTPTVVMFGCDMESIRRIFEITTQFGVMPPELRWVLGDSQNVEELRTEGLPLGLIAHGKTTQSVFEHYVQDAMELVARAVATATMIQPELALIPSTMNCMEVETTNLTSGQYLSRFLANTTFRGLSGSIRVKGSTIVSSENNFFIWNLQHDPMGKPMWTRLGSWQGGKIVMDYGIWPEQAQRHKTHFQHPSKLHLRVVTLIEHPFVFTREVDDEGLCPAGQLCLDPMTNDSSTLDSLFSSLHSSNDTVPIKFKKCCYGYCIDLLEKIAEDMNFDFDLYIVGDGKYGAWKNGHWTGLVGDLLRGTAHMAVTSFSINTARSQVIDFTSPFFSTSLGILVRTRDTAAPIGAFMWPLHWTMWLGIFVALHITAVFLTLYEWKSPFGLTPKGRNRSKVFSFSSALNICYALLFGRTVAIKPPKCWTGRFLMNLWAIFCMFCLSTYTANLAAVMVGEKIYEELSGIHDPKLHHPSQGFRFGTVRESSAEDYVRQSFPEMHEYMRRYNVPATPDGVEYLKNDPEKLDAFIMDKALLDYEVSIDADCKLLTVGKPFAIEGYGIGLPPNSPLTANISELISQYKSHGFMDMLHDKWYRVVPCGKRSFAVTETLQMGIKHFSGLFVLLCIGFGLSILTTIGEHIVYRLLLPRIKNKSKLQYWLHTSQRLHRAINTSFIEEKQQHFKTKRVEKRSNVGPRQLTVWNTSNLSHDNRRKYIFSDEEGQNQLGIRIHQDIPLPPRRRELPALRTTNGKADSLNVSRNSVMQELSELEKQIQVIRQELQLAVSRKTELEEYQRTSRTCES
T2 sequence (Q13002 32-908, species assumed): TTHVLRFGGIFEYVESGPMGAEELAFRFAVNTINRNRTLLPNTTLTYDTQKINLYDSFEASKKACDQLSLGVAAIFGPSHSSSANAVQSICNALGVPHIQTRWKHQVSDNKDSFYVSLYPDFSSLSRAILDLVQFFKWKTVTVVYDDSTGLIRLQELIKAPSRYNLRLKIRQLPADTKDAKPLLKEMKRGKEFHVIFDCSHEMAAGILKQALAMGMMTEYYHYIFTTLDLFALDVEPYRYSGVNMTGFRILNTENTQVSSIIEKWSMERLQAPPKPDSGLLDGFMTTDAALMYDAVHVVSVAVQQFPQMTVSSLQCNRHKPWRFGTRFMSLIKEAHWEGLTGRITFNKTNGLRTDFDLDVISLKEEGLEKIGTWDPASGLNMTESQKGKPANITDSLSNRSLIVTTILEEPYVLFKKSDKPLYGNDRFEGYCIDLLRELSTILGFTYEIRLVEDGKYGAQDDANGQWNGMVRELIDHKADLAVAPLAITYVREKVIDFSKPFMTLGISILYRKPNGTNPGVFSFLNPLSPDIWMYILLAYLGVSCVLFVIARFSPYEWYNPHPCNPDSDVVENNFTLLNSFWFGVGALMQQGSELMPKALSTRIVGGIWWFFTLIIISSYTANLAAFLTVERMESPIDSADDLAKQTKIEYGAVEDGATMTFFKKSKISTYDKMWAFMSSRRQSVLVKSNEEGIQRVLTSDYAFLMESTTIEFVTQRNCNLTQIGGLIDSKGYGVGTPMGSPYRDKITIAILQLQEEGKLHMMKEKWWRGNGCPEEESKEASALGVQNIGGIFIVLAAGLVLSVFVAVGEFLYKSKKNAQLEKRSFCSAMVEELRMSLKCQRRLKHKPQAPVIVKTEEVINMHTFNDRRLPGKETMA
T9 sequence (P23415 29-457): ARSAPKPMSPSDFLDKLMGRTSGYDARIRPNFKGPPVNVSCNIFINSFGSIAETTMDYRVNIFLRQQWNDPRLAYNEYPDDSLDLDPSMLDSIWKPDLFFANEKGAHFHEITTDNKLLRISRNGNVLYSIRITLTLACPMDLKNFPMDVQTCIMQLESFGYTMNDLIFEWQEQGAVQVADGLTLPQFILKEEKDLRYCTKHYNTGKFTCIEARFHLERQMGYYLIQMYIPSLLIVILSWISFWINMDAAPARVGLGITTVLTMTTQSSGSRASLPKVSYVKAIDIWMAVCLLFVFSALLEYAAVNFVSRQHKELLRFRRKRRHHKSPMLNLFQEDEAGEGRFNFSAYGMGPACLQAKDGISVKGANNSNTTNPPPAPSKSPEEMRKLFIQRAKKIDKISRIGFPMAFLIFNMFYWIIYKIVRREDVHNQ
T3 sequence (P43681 29-627 limits assumed): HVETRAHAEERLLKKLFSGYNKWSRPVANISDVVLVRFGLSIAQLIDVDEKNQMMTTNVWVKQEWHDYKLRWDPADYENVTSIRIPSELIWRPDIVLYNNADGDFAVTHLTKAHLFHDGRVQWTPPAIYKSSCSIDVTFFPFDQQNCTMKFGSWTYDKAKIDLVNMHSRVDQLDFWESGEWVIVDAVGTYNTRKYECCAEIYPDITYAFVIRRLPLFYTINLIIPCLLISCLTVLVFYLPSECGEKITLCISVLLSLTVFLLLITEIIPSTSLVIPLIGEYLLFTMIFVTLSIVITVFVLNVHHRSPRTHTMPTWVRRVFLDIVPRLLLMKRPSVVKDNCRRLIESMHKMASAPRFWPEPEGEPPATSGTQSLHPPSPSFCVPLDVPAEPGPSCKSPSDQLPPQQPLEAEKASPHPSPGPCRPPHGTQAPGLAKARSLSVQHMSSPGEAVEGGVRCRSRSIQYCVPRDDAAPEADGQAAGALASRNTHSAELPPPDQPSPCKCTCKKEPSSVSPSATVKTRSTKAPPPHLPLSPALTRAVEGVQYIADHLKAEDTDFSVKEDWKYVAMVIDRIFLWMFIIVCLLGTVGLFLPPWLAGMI
T3 sequence (P17787 26-502): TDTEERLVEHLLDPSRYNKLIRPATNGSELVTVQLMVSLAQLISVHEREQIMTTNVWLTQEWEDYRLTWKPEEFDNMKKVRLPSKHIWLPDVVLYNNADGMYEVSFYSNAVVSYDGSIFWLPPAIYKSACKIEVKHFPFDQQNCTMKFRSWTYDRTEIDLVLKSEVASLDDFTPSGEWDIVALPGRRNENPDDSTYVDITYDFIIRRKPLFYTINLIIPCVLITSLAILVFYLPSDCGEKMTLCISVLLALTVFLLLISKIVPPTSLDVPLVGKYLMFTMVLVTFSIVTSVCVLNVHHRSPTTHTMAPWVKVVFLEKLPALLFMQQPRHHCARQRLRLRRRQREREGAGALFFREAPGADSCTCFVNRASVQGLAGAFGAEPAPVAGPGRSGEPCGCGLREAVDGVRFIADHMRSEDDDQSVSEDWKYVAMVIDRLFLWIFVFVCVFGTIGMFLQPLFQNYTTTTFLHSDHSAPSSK
T6 sequence (P46098 24-478, species assumed): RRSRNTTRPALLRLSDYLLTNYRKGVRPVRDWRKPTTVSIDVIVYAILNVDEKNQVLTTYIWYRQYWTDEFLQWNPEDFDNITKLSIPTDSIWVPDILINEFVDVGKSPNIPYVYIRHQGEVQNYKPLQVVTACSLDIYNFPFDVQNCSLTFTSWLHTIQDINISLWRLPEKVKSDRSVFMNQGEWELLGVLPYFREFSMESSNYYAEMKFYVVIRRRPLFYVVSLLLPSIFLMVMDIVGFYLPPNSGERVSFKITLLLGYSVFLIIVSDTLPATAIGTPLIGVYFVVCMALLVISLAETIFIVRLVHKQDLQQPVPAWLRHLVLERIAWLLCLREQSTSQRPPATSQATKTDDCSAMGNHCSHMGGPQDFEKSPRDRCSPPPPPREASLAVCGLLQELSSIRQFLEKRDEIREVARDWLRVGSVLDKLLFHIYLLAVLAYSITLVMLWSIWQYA

CS(=O)(=O)Nc1ccc(OC[C@@H](O)CN2CCN(c3ccc(F)c(F)c3)CC2)cc1 [EU93-108, (S)-N-(4-(3-(4-(3,4-Difluorophenyl)piperazin-1-yl)-2-hydroxypropoxy)phenyl)methanesulfonamide]
effect on development of morphine tolerance (C57BL/6J mice [1]): failed to inhibit the development of tolerance
ED50 (C57BL/6J mice [2]; Mus musculus, ip, male mice, i.p., fitted dose–response curve, estimated, read-out: ED50 (tail flick latency), EU93-108 alone): 9.7 mg/kg
dose at which significant increase in latency was achieved (C57BL/6J mice [2]; female mice, i.p.): 60 mg/kg
effect on tail flick latency vs vehicle (C57BL/6J mice [2]; female mice, i.p. 30 min prior to test): increased latency, but only at 60 mg/kg
mean latency increase (C57BL/6J mice [2]; [3]): 16 s
effect on tail flick latency vs vehicle (C57BL/6J mice [2]; [3]): significant increases in latency at the two highest doses tested (30 and 60 mg/kg)
dose at which significant latency increases were achieved (C57BL/6J mice [2]; male mice, i.p., lowest significant dose): 30 mg/kg
% Control 10 µM EU93-108 (GluA1): 101.3 ± 1.9%
% Control 10 µM EU93-108 (GluK2): 88.1 ± 4.4%
% Control 10 µM EU93-108 (α4β2-nACh): 3.2 ± 0.7%
% Control 10 µM EU93-108 (hGluA3-L531Y): 94.7 ± 5.1%
% Control 10 µM EU93-108 (hGluN1/GluN3A): 103.6 ± 1.7%
% Control 10 µM EU93-108 (ρ-GABAC): 97 ± 1.5%
% Control 10 µM EU93-108 (5-HT3A): 92.8 ± 2.7%
% Control 10 µM EU93-108 (GluA2-R607Q): 98.4 ± 0.57%
% Control 10 µM EU93-108 (rGluN1/GluN3B): 108.8 ± 4.0%
% Control 10 µM EU93-108 (α1-Glycine): 105 ± 6.6%
